These results are taken from PubChem BioAssay (NCI).

Assay in all cases: NCI tumour cell line growth inhibition, 48 h
Assay [1] relates to SK-MEL-28 melanoma.
For assay [2], the system named is NCI-H460 lung.
For assay [3], the system named is MALME-3M melanoma.
Assay [4] has as its system SNB-19 CNS.
In assay [5] the test system is MOLT-4 leukemia.
In assay [6] the test system is HT29 colon.
Assay [7] deals with OVCAR-3 ovarian.
For assay [8], the system named is 786-0 renal.
Assay [9] concerns A498 renal.
The subject of assay [10] is SNB-75 CNS.

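Briefly, cells in 96-well plates were exposed to five compound concentrations for 48 h, and endpoints were estimated by linear interpolation. Abbreviation: GI50, concentration required for 50% inhibition of growth. TGI is the concentration that stops growth completely.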

For `CCCCCCCCOCC(O)COC(=O)CCCCCCC` (stereo unspecified), the TGI in assay [1], in [2], in assay [3], in assay [4], in assay [5] and in assay [6] was above 100 µM in each case. For the same compound, the TGI in assay [7] is 64.8 µM; in assay [8] it was above 100 µM; in assay [9], above 100 µM.
Take `O=[N+]([O-])c1ccccc1N/N=C\c1c[nH]c2ccccc12`: the GI50 in [1] was above 100 µM; in assay [2], 10.3 µM; in assay [3] it was 28.8 µM; in assay [4], 24.9 µM; in [5], 4.42 µM; in [6], 16.8 µM. Moreover, the GI50 in assay [10] is 4.2 µM; in [7] it was 8.18 µM; in [8], 18.8 µM. In addition, the TGI was above 100 µM in [1]; above 100 µM in [2]; above 87.1 µM in assay [3]; above 100 µM in assay [4]; above 100 µM in [5]; above 61.7 µM in [6]. Moreover, the TGI is 29.8 µM in assay [10], above 64.9 µM in assay [7] and above 93.1 µM in assay [8].
`Cc1ccc2ncnc(N(CC(C)C)CC(C)C)c2c1`: the GI50 in assay [1] is 19.9 µM; in assay [2] it was 14.5 µM; in assay [3], 16.8 µM; in assay [4], 20.5 µM; in assay [5] it was 7.6 µM; in [7], 16.3 µM. The GI50 was 18.5 µM in [8] and 13.5 µM in assay [9]. Also, the TGI in assay [1] is 42.6 µM; in assay [2], 49 µM; in [3], 31.7 µM; in [4], 42.9 µM; in [5] it was 38.4 µM; in [7], 31.5 µM. Besides, the TGI in assay [8] was determined as 40 µM; in assay [9] it was 28.2 µM.
`NC(N)=N/N=C/c1c(-c2cc(Cl)sc2Cl)nc2sccn12`: the GI50 in assay [2] is 1.43 µM; in [5], 0.912 µM; in [7], 1.27 µM; in assay [8] it was 0.924 µM; in assay [9], 1.54 µM. Besides, the TGI in assay [2] was 4.4 µM; in [5] it was 1.91 µM; in assay [7] it was 3.4 µM; in assay [8], 1.79 µM; in assay [9], 10.2 µM.
For `O=C(/C(=C\c1ccc([N+](=O)[O-])cc1)S(=O)Cc1ccc(F)cc1)c1ccc(F)cc1` (stereo unspecified), the GI50 in assay [1] is 1.8 µM; in [2], 2.13 µM; in assay [3], 1.64 µM; in assay [4], 2.37 µM; in [5] it was 1.51 µM; in assay [10], 3.28 µM. Further, the GI50 is 1.63 µM in assay [7], 1.74 µM in [8] and 6.19 µM in assay [9]. The TGI was found to be 3.66 µM in assay [1]; 4.7 µM in [2]; 3.55 µM in assay [3]; 5.61 µM in [4]; 5.06 µM in assay [5]; 15.3 µM in assay [10]. Also, the TGI was 3.01 µM in assay [7], 3.92 µM in assay [8] and 18.6 µM in [9].
For `O=C(c1ccccc1)c1ccc(Oc2ccc([N+](=O)[O-])cc2[N+](=O)[O-])cc1`, the GI50 in [1] was 7.03 µM; in assay [2], 8.62 µM; in assay [4], 7.74 µM; in [5], 3.08 µM; in assay [6], 4.08 µM; in [10], 5.62 µM. Further, the GI50 in assay [7] is 2.3 µM; in [8], 3.46 µM; in assay [9] it was 11 µM. In addition, the TGI in assay [1] was 36.7 µM; in assay [2], 33.3 µM; in assay [4], 34.2 µM; in assay [5], above 100 µM; in [6], 20.8 µM; in assay [10] it was 26.7 µM. The TGI amounted to 5.07 µM in [7], 15.9 µM in assay [8] and 24.8 µM in assay [9].
Turning to `C/C(=C\CCc1ccoc1)CC/C=C(\C)CCCN1CCOCC1`, the GI50 in [1] was 10.3 µM; in [2], 4.79 µM; in assay [4], 9.27 µM; in assay [5], 4.2 µM; in [10], 3.15 µM; in [7], 3.73 µM. For the same compound, the GI50 in assay [8] was 1.83 µM; in [9], 4.48 µM. The TGI worked out at 24 µM in assay [1]; 17.8 µM in assay [2]; 23.6 µM in [4]; 16.9 µM in [5]; 16.3 µM in [10]; 15.3 µM in assay [7]. In addition, the TGI in [8] amounted to 4.18 µM; in assay [9], 19.7 µM.
Consider `CC(=O)Nc1cc(N(CCOS(C)(=O)=O)CCOS(C)(=O)=O)ccc1N=O`, for which the TGI in assay [1], in assay [2], in assay [3], in assay [4], in assay [5] and in assay [6] was above 100 µM throughout. The TGI in assay [10], in assay [7] and in assay [8] was above 100 µM each time.
Regarding `CO[C@@H]1C=C[C@@]23c4cc5c(cc4C(=O)O[C@H]2CN(C)[C@H]3C1)OCO5`, the TGI in assay [1], in [2], in [4], in assay [5], in assay [6] and in assay [10] was above 100 µM each time. For the same compound, the TGI in [7], in [8] and in assay [9] was above 100 µM throughout.
Consider `O=C(O)c1cc(/C=C/c2cc(O)ccc2O)ccc1O`, for which the TGI in assay [2], in assay [3], in [4], in [5], in assay [6] and in assay [7] was above 10 µM in each case. For the same compound, the TGI in assay [8] was above 10 µM.
For `O=C(CN(/C=C/C(=O)C(F)(F)F)c1ccc(Cl)cc1)c1ccccc1`, the GI50 in assay [1] is 17.3 µM; in [2] it was 52.9 µM; in assay [4], 33 µM; in assay [5], 39.7 µM; in assay [6], 25.8 µM; in assay [10], 12.9 µM. For the same compound, the results for the GI50 in assay [7], in assay [8] and in [9] were 9.15 µM, 13.5 µM and 22 µM, respectively. The TGI in assay [1] is 37.5 µM; in assay [2] it was above 100 µM; in assay [4], above 100 µM; in assay [5], above 100 µM; in assay [6] it was above 100 µM; in assay [10], 41.1 µM. Also, the TGI is 46.3 µM in assay [7], 31.3 µM in [8] and 43.1 µM in [9].
On to `CC(=O)NC1=C(NCCN(C)C)C(=O)c2ccccc2C1=O`, for which the TGI was above 50 µM in assay [1]; above 50 µM in assay [2]; 14.3 µM in assay [3]; above 50 µM in assay [4]; above 50 µM in assay [5]; 38.6 µM in assay [6]. Moreover, the TGI in assay [10], in assay [7] and in [8] was above 50 µM throughout.
Take `O=C1c2nsnc2C(=O)c2c(F)c(F)c(F)c(F)c21`: the GI50 is 0.594 µM in assay [1]; 0.758 µM in assay [2]; 1.2 µM in assay [4]; 0.298 µM in [5]; 0.266 µM in [6]; 1.02 µM in [10]. Further, the GI50 is 1.63 µM in [8] and 1.6 µM in assay [9]. The TGI in [1] worked out at 1.76 µM; in assay [2], 2.34 µM; in assay [4] it was 2.56 µM; in assay [5], 1.44 µM; in assay [6] it was 0.715 µM; in assay [10], 2.21 µM. The results for the TGI in assay [8] and in assay [9] were 3.01 µM and 3.57 µM, respectively.
In the case of `COC(=O)C(Cc1cc(OC)c(OC)c(OC)c1)c1ccc(OC)cc1` (stereo unspecified), the TGI in [1], in assay [2], in [3], in assay [4], in assay [5] and in assay [6] was above 100 µM throughout. The TGI in assay [7], in assay [8] and in assay [9] was above 100 µM each time.
In the case of `OCC(O)C(O)C(O)c1nn(-c2ccc(Cl)cc2)c2nc3cc(Cl)c(Cl)cc3nc12` (stereo unspecified), the TGI was above 100 µM in assay [1]; above 100 µM in [2]; 71 µM in [3]; above 100 µM in assay [4]; above 100 µM in assay [5]; above 100 µM in [6]. In addition, the results for the TGI in assay [10], in [7] and in assay [8] were 11.1 µM, above 100 µM and above 100 µM, respectively.
Regarding `Cc1ccc(S(=O)(=O)N2CCSCCN(S(=O)(=O)c3ccc(C)cc3)CCN(S(=O)(=O)c3ccc(C)cc3)CC2)cc1`, the TGI in assay [1], in assay [2], in [4], in [5], in assay [6] and in [7] was above 100 µM in each case. Further, the TGI is 73.9 µM in assay [8] and above 100 µM in assay [9].
Turning to `CCc1c(Cc2[nH]c(Cc3[nH]c(C=O)c(C)c3CC)c(CC)c2CC)[nH]c(C=O)c1C`, the TGI in [1], in assay [2], in assay [3], in assay [4], in [5] and in assay [6] was above 100 µM in each case. Further, the TGI in assay [10], in assay [7] and in assay [8] was above 100 µM in each case.
As to `COc1ccc2c(c1)[n+](=O)c(C(=O)c1ccco1)c(C(F)(F)F)n2[O-]`, the GI50 was 12.3 µM in [1]; 1.72 µM in assay [2]; 4.25 µM in assay [4]; above 100 µM in assay [5]; 4.59 µM in [6]; 3.83 µM in assay [10]. In addition, the GI50 was 1.54 µM in assay [7], 3.83 µM in [8] and 3.98 µM in assay [9]. For the same compound, the TGI is 94.9 µM in assay [1]; 15.6 µM in assay [2]; 45.5 µM in assay [4]; above 100 µM in assay [5]; above 100 µM in assay [6]; 25.6 µM in assay [10]. The TGI came out at 11.5 µM in assay [7], 54.1 µM in assay [8] and 16 µM in assay [9].
Take `COC(=O)/C=C(\C(=O)OC)c1c2c3c(cc(OC)c(OC)c3c3ccccc13)CCN2C`: the TGI was above 100 µM in assay [1]; above 100 µM in assay [2]; above 100 µM in assay [3]; above 100 µM in assay [4]; 89.5 µM in [5]; above 100 µM in assay [6]. Moreover, the TGI in assay [10], in assay [7] and in assay [8] was above 100 µM in each case.
Turning to `O=C1c2ccccc2C(=O)N1CCN(CCN1C(=O)c2ccccc2C1=O)Cn1cccn1`, the TGI in [1], in [2], in [4], in assay [5], in assay [10] and in [7] was above 100 µM each time. Moreover, the TGI in assay [8] and in assay [9] was above 100 µM each time.
`O=C(O)C[C@H]1CCCCC12CCOC2=O` (stereo partly specified): the TGI in assay [1], in [2], in assay [4], in assay [5], in assay [6] and in assay [10] was above 100 µM each time. In addition, the TGI in assay [7] and in [8] was above 100 µM throughout.
For the compound `O=C1CCC2CC(C(=O)c3ccccc3)CCC2CN1` (stereo unspecified) (tested in a mixture with another compound), the TGI in assay [1], in [2], in assay [3], in assay [4], in assay [5] and in assay [6] was above 100 µM in each case. For the same compound, the TGI in assay [10], in [7] and in assay [8] was above 100 µM throughout.
For the compound `O=C1NC(=O)C(=C/C=C/c2ccccc2)C(=O)N1`, the GI50 is 1.91 µM in assay [1]; 2.78 µM in assay [2]; 5.14 µM in assay [4]; 4.12 µM in assay [5]; 6 µM in assay [10]; 1.53 µM in assay [7]. The results for the GI50 in assay [8] and in assay [9] were 3.11 µM and 20 µM, respectively. Also, the TGI in [1] stood at 3.59 µM; in assay [2], 7.31 µM; in [4], 24.7 µM; in assay [5], 25.1 µM; in [10], 19.4 µM; in [7], 3.97 µM. Besides, the TGI in assay [8] was 11 µM; in assay [9] it was 34.6 µM.
